Source: patent publication US20240300882A1, “CRYSTALLINE FORMS OF A DIFFUSION ENHANCING COMPOUND” (DIFFUSION PHARMACEUTICALS LLC, priority 2021, published 2024)

Assays:
Format in all cases: physicochemical
[1] = Competitive slurry experiments, wet solid analysed by XRPD
Protocol: Sample preparation is carried out in a nitrogen glove box. Saturated solutions of TSC from Example 2 are prepared at a given temperature. The volume of each solution is about 1.5 mL and it is deemed saturated if excess solid remains after stirring for 2 hours. The sample is then centrifuged and the mother liquor is transferred to a vial containing equal amounts of each polymorph, about 10 mg each. The vials are capped and sealed with parafilm, and the slurries are then stirred magnetically at a given temperature for 5 days. Each sample is then centrifuged, the mother liquor decanted, and the wet solid immediately analyzed by XRPD.
Competitive slurry experiments involving Crystalline Forms A through E are carried out at three different temperatures using three different solvent systems (Table 2). […] At 50° C., the slurries in 1:1 acetone:water and 1:1 acetonitrile:water produce a mixture of Crystalline Forms A and B and Crystalline Form A, respectively. Although both solvent systems contain significant amounts of water, the slurries are carried out at a temperature at which Crystalline Form B is known to lose volatiles. […] That is probably the reason that Crystalline Form A results from the higher-temperature slurries in water-containing solvents.
Additional competitive slurry experiments are carried out between Crystalline Forms A, B, and F (Table 3). The data are consistent with the results in Example 10. […] The elevated temperature aqueous slurry data is also consistent with Example 10. Crystalline Form A is observed in aqueous media at 50° C. In the case of the 1:1 ethanol:water slurry, the XRPD pattern of the resulting material matches that of Crystalline Form A but contains several unidentified peaks.

[2] = Heating to 100° C. in a TG furnace, then XRPD; conditions: Heat to 100° C., hold 1 minute
Protocol: Crystalline Forms A and B are heated to 100° C. in a TG furnace, held at that temperature for 1 minute, and immediately analyzed by XRPD.

[3] = Dynamic vapor sorption (DVS) analysis; conditions: for Form by XRPD after DVS analysis: exposed up to 95% RH and down to 5% RH
Protocol: DVS analysis is carried out using a TA Instruments Q5000 Dynamic Vapor Sorption analyzer. The instrument is calibrated with standard weights and a sodium bromide standard for humidity. Approximately 10-25 mg (e.g., 20 mg) or 5-15 mg of sample is loaded into a metal-coated quartz pan for analysis. The sample is analyzed at 25° C. with a maximum equilibration time of one hour in 10% relative humidity (RH) steps from 5 to 95% RH (adsorption cycle) and from 95 to 5% RH (desorption cycle). The movement from one step to the next occurred either after satisfying the equilibrium criterion of 0.01% weight change or, if the equilibrium criterion is not met, after one hour. The percent weight change values are calculated using Microsoft Excel®. The temperature for the DVS analysis may impact the outcome of the results.

[4] = XRPD under a nitrogen stream of variable relative humidity
Protocol: Form H from Example 25 is measured under different relative humidities. The humidity measurements are made on a powder diffractometer X'Pert, PANalytical (G.16.SYS.S006) using CuKα radiation. Measuring conditions: tube power 40 kV/40 mA, scan range 1°-50° (2θ), step size 0.02°, time per step 2.4 seconds. The sample is measured in a 0.4 mm deep sample holder in a closed chamber under a stream of nitrogen of variable relative humidity (RH). The humidity of the nitrogen stream is controlled by varying the relative amount of humid and dry nitrogen gas. The sample is first conditioned one hour with a dry nitrogen stream and then a first XPRD is taken. The humidity of the gas stream is then changed to 50% RH and the sample is conditioned three hours to the new RH prior to a second XRPD measurement. After 10 more hours with 50% RH, a third XRPD is taken.

[5] = Solid-state stability in relative humidity jars, analysed by XRPD; conditions: up to 4 weeks at 25° C./60% RH and 40° C./75% RH
Protocol: The solid-state stability of TSC Crystalline Forms A and F are evaluated at 25° C./60% relative humidity (RH) and 40° C./75% RH.
To a 1-dram glass vial is added approximately 20 mg of TSC Crystalline Form A or F. The open vials are placed in relative humidity (RH) jars. The RH in each jar is controlled by a saturated salt solution (sodium bromide for 60% RH and sodium chloride for 75% RH). The RH jars are purged with nitrogen and sealed. The sealed RH jars are placed in ovens set at the appropriate temperatures. The materials are analyzed at given time points by XRPD.

[6] = Equilibrium solubility shake-flask method, 24-hour slurry, XRPD result; conditions: water and ethanol
Protocol: Solubility is evaluated using shake-flask method at room temperature. Individual samples are prepared as follows: Approximately 20 mg of TSC Forms A, F, and J are placed in a 1-dram glass vial. To each vial is added 1.5 mL of media. The vials are then placed in an incubation chamber at room temperature with shaking at 150 rpm. After 24 hours the vials are removed and each slurry is vacuum filtered. The mother liquor is diluted 1:10 with the respective media for that sample and analyzed by HPLC. Water used is HPLC grade. Ethanol used in absolute, HPLC grade.

[7] = Physical stability of Crystalline Form F under slurry conditions, XRPD; conditions: anhydrous ethanol and ethanol with 1 and 5% water, ambient temperature, up to 4 days
Protocol: The physical stability of Crystalline Form F is evaluated when it is slurried in three solvent systems (anhydrous ethanol and ethanol containing both 1 and 5% water by volume) at ambient temperature.
To a 1-dram glass vial is added approximately 20 mg of TSC Crystalline Form F and 1 mL of a given solvent. The slurry is stirred at room temperature for a given amount of time. The vial is then centrifuged, the mother liquor decanted, and the wet solid is analyzed by XRPD.

Compound: CC(/C=C/C=C(\C)C(=O)[O-])=C\C=C\C=C(C)\C=C\C=C(/C)C(=O)[O-].[Na+].[Na+] [Crystalline Form B, trans sodium crocetinate]
- Relative stability of the forms ([1]; aqueous conditions): most stable form
- Relative stability of the forms ([1]; between 2 and 55° C. in 1:1 ethanol:water (v/v)): more stable than Forms A, C, D, E, and F
- XRPD pattern after heating [2]: converts to Crystalline Form F

Compound: CC(/C=C/C=C(\C)C(=O)[O-])=C\C=C\C=C(C)\C=C\C=C(/C)C(=O)[O-].[Na+].[Na+] [Example 20, trans sodium crocetinate]
- Form by XRPD after DVS analysis [3]: remains unchanged

Compound: CC(/C=C/C=C(\C)C(=O)[O-])=C\C=C\C=C(C)\C=C\C=C(/C)C(=O)[O-].[Na+].[Na+] [Form H, trans sodium crocetinate]
- Form on exposure to different relative humidities [4]: changes form
- Form by XRPD after humidity exposure ([4]; 0% RH, dry nitrogen stream, one hour): Form G
- Form by XRPD after humidity exposure ([4]; 50% RH, 10 more hours (third XRPD)): no difference between the second and third XRPDs
- Form by XRPD after humidity exposure ([4]; 50% RH, three hours): Form E

Compound: trans sodium crocetinate [Crystalline Form A]
- Relative stability of the forms ([1]; between 2 and 50° C. in methanol): more stable than Forms B through E
- Relative stability of the forms ([1]; between 2 and 55° C. in absolute ethanol and absolute ethanol containing either 10% methanol or toluene): more stable than Forms B through F
- Relative stability of the forms ([1]; non-aqueous conditions): most stable form
- XRPD pattern after heating [2]: remains unchanged
- Solid-state stability of the form [5]: remain unchanged
- maximum water absorption ([3]; DVS, 25° C., 5 to 95% RH): about 2.5%
- Form by XRPD after DVS analysis [3]: remains unchanged
- Form after 24-hour slurry experiments [6]: remain unchanged

Compound: trans sodium crocetinate [Crystalline Form F]
- Solid-state stability of the form [5]: remain unchanged
- Form by XRPD after DVS analysis [3]: remains unchanged
- Physical stability of the form when slurried [7]: remains unchanged
- Form after 24-hour slurry experiments [6]: remain unchanged

Compound: trans sodium crocetinate [Crystalline Form J]
- Form after 24-hour slurry experiments [6]: exhibits form conversion
